Experimental data reported in ChEMBL document CHEMBL1914439, “Novel 1-alkynyl substituted 1,2-dihydroquinoline derivatives from nimesulide (and their 2-oxo analogues): a new strategy to identify inhibitors of PDE4B” (2011).

Tests used:
[1] = target: 3',5'-cyclic-AMP phosphodiesterase 4B (Homo sapiens) (UniProt Q07343); assay: Inhibition of recombinant His-tagged PDE4B expressed in Sf9 cells using cAMP as substrate at 30 uM preincubated for 15 mins measured after 1 hr by multilabel plate reader
[2] = target: 3',5'-cyclic-AMP phosphodiesterase 4B (Homo sapiens) (UniProt Q07343); assay: Inhibition of recombinant His-tagged PDE4B expressed in Sf9 cells using cAMP as substrate at 10 uM preincubated for 15 mins measured after 1 hr by multilabel plate reader
[3] = target: 3',5'-cyclic-AMP phosphodiesterase 4B (Homo sapiens) (UniProt Q07343); assay: Inhibition of recombinant His-tagged PDE4B expressed in Sf9 cells using cAMP as substrate at 3 uM preincubated for 15 mins measured after 1 hr by multilabel plate reader
[4] = target: 3',5'-cyclic-AMP phosphodiesterase 4B (Homo sapiens) (UniProt Q07343); assay: Inhibition of recombinant His-tagged PDE4B expressed in Sf9 cells using cAMP as substrate at 1 uM preincubated for 15 mins measured after 1 hr by multilabel plate reader
[5] = target: 3',5'-cyclic-AMP phosphodiesterase 4B (Homo sapiens) (UniProt Q07343); assay: Inhibition of recombinant His-tagged PDE4B expressed in Sf9 cells using cAMP as substrate at 0.3 uM preincubated for 15 mins measured after 1 hr by multilabel plate reader
RAW264.7 [6] = assay: Antiinflammatory activity in mouse RAW264.7 cells assessed as inhibition of LPS-induced TNFalpha challenge at 30 uM preincubated for 30 mins before LPS challenge by ELISA; type: functional
RAW264.7 [7] = assay: Antiinflammatory activity in mouse RAW264.7 cells assessed as inhibition of LPS-induced TNFalpha challenge at 10 uM preincubated for 30 mins before LPS challenge by ELISA; type: functional

Sequence of 3',5'-cyclic-AMP phosphodiesterase 4B (Homo sapiens) (Q07343 whole entry): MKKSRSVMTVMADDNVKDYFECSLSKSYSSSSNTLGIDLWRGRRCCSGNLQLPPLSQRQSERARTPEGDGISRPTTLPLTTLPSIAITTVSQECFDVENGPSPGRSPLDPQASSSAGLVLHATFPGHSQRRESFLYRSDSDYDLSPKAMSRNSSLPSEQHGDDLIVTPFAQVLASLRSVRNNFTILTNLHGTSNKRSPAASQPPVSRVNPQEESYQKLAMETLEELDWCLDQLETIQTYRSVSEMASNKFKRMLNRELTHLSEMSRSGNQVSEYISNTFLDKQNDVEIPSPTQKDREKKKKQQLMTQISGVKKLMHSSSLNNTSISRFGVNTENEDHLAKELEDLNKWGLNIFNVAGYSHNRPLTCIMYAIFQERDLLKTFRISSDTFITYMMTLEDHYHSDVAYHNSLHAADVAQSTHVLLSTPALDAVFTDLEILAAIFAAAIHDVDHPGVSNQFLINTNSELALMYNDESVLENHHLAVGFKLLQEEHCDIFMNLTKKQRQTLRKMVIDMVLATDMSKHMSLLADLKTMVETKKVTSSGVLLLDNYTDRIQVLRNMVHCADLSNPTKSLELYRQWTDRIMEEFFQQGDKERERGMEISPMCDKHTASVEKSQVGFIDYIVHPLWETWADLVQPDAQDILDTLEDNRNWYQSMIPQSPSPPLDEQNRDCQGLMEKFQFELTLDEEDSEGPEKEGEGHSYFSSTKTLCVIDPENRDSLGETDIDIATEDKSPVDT

| Structure (SMILES) | inhibition [1] [%] | further results |
| --- | --- | --- |
| Cc1ccccc1C#CCn1c(=O)c(C=O)cc2ccccc21 | 45.5 |  |
| CC1=CC(C)(C)N(CC#Cc2ccccc2Cl)c2cc(Oc3ccccc3)c(NS(C)(=O)=O)cc21 | 40.3 |  |
| COc1ccc(C#CCn2c(=O)c(C=O)cc3ccccc32)cc1 | 22.6 |  |
| CC1=CC(C)(C)N(CC#Cc2ccccc2[N+](=O)[O-])c2cc(Oc3ccccc3)c(NS(C)(=O)=O)cc21 | 37.4 |  |
| COC(=O)c1ccccc1C#CCN1c2cc(Oc3ccccc3)c(NS(C)(=O)=O)cc2C(C)=CC1(C)C | 33.1 | inhibition [2]: 23%; inhibition [3]: 16%; inhibition [4]: 11%; inhibition [5]: 10%; inhibition at 30 µM (RAW264.7 [6]): 47%; inhibition at 10 µM (RAW264.7 [7]): 35% |
| O=Cc1cc2ccccc2n(CC#Cc2ccc(Cl)cc2)c1=O | 26.5 |  |
| O=Cc1cc2ccccc2n(CC#Cc2cccc([N+](=O)[O-])c2)c1=O | 22.6 |  |
| O=Cc1cc2ccccc2n(CC#Cc2ccccc2Cl)c1=O | 54.4 |  |
| O=Cc1cc2ccccc2n(CC#Cc2ccc([N+](=O)[O-])cc2)c1=O | 4.15 |  |
| CC1=CC(C)(C)N(CC#Cc2cccc([N+](=O)[O-])c2)c2cc(Oc3ccccc3)c(NS(C)(=O)=O)cc21 | 41.6 |  |
| CC1=CC(C)(C)N(CC#Cc2ccc([N+](=O)[O-])cc2)c2cc(Oc3ccccc3)c(NS(C)(=O)=O)cc21 | 35.1 |  |
